± gives the expanded uncertainty stated by the source.
Experiments:
[1] = refractive index (Na D-line) (dimensionless); xn = mol fraction of the nth substance listed; details: 101.3 kPa, Liquid, Standard Abbe refractometry
[2] = xn = mol fraction of the nth substance listed; details: 101.3 kPa, Liquid, Sing-around technique in a fixed-path interferometer

SMILES: ClCCCCl [1,3-dichloropropane] + C[N+](=O)[O-]
- refractive index ([1]; 298.15 K, x1 = 0.0878): 1.38808 ± 0.0004
- refractive index ([1]; 298.15 K, x1 = 0.1939): 1.39757 ± 0.00038
- refractive index ([1]; 298.15 K, x1 = 0.2938): 1.40567 ± 0.00037
- refractive index ([1]; 298.15 K, x1 = 0.3998): 1.41335 ± 0.00036
- refractive index ([1]; 298.15 K, x1 = 0.5028): 1.42017 ± 0.00035
- refractive index ([1]; 298.15 K, x1 = 0.6154): 1.42699 ± 0.00034
- refractive index ([1]; 298.15 K, x1 = 0.7207): 1.43278 ± 0.00034
- refractive index ([1]; 298.15 K, x1 = 0.8326): 1.43844 ± 0.00033
- refractive index ([1]; 298.15 K, x1 = 0.9404): 1.44348 ± 0.00032
- refractive index ([1]; 298.15 K, x1 = 1): 1.44617 ± 0.00032
- refractive index ([1]; 308.15 K, x1 = 0.0878): 1.38325 ± 0.0004
- refractive index ([1]; 308.15 K, x1 = 0.1939): 1.39278 ± 0.00038
- refractive index ([1]; 308.15 K, x1 = 0.2938): 1.40095 ± 0.00037
- refractive index ([1]; 308.15 K, x1 = 0.3998): 1.40869 ± 0.00036
- refractive index ([1]; 308.15 K, x1 = 0.5028): 1.41551 ± 0.00035
- refractive index ([1]; 308.15 K, x1 = 0.6154): 1.42236 ± 0.00034
- refractive index ([1]; 308.15 K, x1 = 0.7207): 1.42826 ± 0.00034
- refractive index ([1]; 308.15 K, x1 = 0.8326): 1.43358 ± 0.00033
- refractive index ([1]; 308.15 K, x1 = 0.9404): 1.43846 ± 0.00032
- refractive index ([1]; 308.15 K, x1 = 1): 1.44123 ± 0.00032
- refractive index ([1]; 318.15 K, x1 = 0.0878): 1.37861 ± 0.0004
- refractive index ([1]; 318.15 K, x1 = 0.1939): 1.38807 ± 0.00038
- refractive index ([1]; 318.15 K, x1 = 0.2938): 1.39632 ± 0.00037
- refractive index ([1]; 318.15 K, x1 = 0.3998): 1.40422 ± 0.00036
- refractive index ([1]; 318.15 K, x1 = 0.5028): 1.41092 ± 0.00035
- refractive index ([1]; 318.15 K, x1 = 0.6154): 1.41782 ± 0.00034
- refractive index ([1]; 318.15 K, x1 = 0.7207): 1.4234 ± 0.0003
- refractive index ([1]; 318.15 K, x1 = 0.8326): 1.42879 ± 0.00033
- refractive index ([1]; 318.15 K, x1 = 0.9404): 1.43349 ± 0.00032
- refractive index ([1]; 318.15 K, x1 = 1): 1.43614 ± 0.00032
- speed of sound ([2]; 298.15 K, x1 = 0.0878): 1303 ± 1.7 m/s
- speed of sound ([2]; 298.15 K, x1 = 0.1939): 1285.9 ± 1.6 m/s
- speed of sound ([2]; 298.15 K, x1 = 0.2938): 1273.6 ± 1.6 m/s
- speed of sound ([2]; 298.15 K, x1 = 0.3998): 1263.5 ± 1.5 m/s
- speed of sound ([2]; 298.15 K, x1 = 0.5028): 1255.9 ± 1.4 m/s
- speed of sound ([2]; 298.15 K, x1 = 0.6154): 1249.4 ± 1.4 m/s
- speed of sound ([2]; 298.15 K, x1 = 0.7207): 1244.7 ± 1.3 m/s
- speed of sound ([2]; 298.15 K, x1 = 0.8326): 1240.8 ± 1.3 m/s
- speed of sound ([2]; 298.15 K, x1 = 0.9404): 1237.9 ± 1.2 m/s
- speed of sound ([2]; 298.15 K, x1 = 1): 1236.5 ± 1.2 m/s
- speed of sound ([2]; 308.15 K, x1 = 0.0878): 1264 ± 1.7 m/s
- speed of sound ([2]; 308.15 K, x1 = 0.1939): 1247.3 ± 1.6 m/s
- speed of sound ([2]; 308.15 K, x1 = 0.2938): 1235.4 ± 1.6 m/s
- speed of sound ([2]; 308.15 K, x1 = 0.3998): 1225.6 ± 1.5 m/s
- speed of sound ([2]; 308.15 K, x1 = 0.5028): 1218.2 ± 1.4 m/s
- speed of sound ([2]; 308.15 K, x1 = 0.6154): 1212 ± 1.4 m/s
- speed of sound ([2]; 308.15 K, x1 = 0.7207): 1207.5 ± 1.3 m/s
- speed of sound ([2]; 308.15 K, x1 = 0.8326): 1203.8 ± 1.3 m/s
- speed of sound ([2]; 308.15 K, x1 = 0.9404): 1201 ± 1.2 m/s
- speed of sound ([2]; 308.15 K, x1 = 1): 1199.7 ± 1.2 m/s
- speed of sound ([2]; 318.15 K, x1 = 0.0878): 1225 ± 1.7 m/s
- speed of sound ([2]; 318.15 K, x1 = 0.1939): 1208.9 ± 1.6 m/s
- speed of sound ([2]; 318.15 K, x1 = 0.2938): 1197.3 ± 1.6 m/s
- speed of sound ([2]; 318.15 K, x1 = 0.3998): 1187.8 ± 1.5 m/s
- speed of sound ([2]; 318.15 K, x1 = 0.5028): 1180.7 ± 1.4 m/s
- speed of sound ([2]; 318.15 K, x1 = 0.6154): 1174.8 ± 1.4 m/s
- speed of sound ([2]; 318.15 K, x1 = 0.7207): 1170.5 ± 1.3 m/s
- speed of sound ([2]; 318.15 K, x1 = 0.8326): 1167 ± 1.3 m/s
- speed of sound ([2]; 318.15 K, x1 = 0.9404): 1164.4 ± 1.2 m/s
- speed of sound ([2]; 318.15 K, x1 = 1): 1163.2 ± 1.2 m/s

SMILES: C[N+](=O)[O-] [nitromethane] + CCCCCl
- refractive index ([1]; 298.15 K, x2 = 0): 1.37917 ± 0.0004
- refractive index ([1]; 298.15 K, x2 = 0.1107): 1.38191 ± 0.00039
- refractive index ([1]; 298.15 K, x2 = 0.2174): 1.38445 ± 0.00038
- refractive index ([1]; 298.15 K, x2 = 0.3236): 1.38691 ± 0.00037
- refractive index ([1]; 298.15 K, x2 = 0.3932): 1.38839 ± 0.00036
- refractive index ([1]; 298.15 K, x2 = 0.4856): 1.39032 ± 0.00035
- refractive index ([1]; 298.15 K, x2 = 0.5569): 1.39177 ± 0.00035
- refractive index ([1]; 298.15 K, x2 = 0.6626): 1.39383 ± 0.00034
- refractive index ([1]; 298.15 K, x2 = 0.7722): 1.39577 ± 0.00033
- refractive index ([1]; 298.15 K, x2 = 0.8646): 1.39729 ± 0.00033
- refractive index ([1]; 308.15 K, x2 = 0): 1.37447 ± 0.0004
- refractive index ([1]; 308.15 K, x2 = 0.1107): 1.37698 ± 0.00039
- refractive index ([1]; 308.15 K, x2 = 0.2174): 1.37936 ± 0.00038
- refractive index ([1]; 308.15 K, x2 = 0.3236): 1.38174 ± 0.00037
- refractive index ([1]; 308.15 K, x2 = 0.3932): 1.38321 ± 0.00036
- refractive index ([1]; 308.15 K, x2 = 0.4856): 1.38511 ± 0.00035
- refractive index ([1]; 308.15 K, x2 = 0.5569): 1.38656 ± 0.00035
- refractive index ([1]; 308.15 K, x2 = 0.6626): 1.38853 ± 0.00034
- refractive index ([1]; 308.15 K, x2 = 0.7722): 1.39045 ± 0.00033
- refractive index ([1]; 308.15 K, x2 = 0.8646): 1.39196 ± 0.00033
- refractive index ([1]; 318.15 K, x2 = 0): 1.3695 ± 0.0004
- refractive index ([1]; 318.15 K, x2 = 0.1107): 1.3718 ± 0.0004
- refractive index ([1]; 318.15 K, x2 = 0.2174): 1.37406 ± 0.00038
- refractive index ([1]; 318.15 K, x2 = 0.3236): 1.37632 ± 0.00037
- refractive index ([1]; 318.15 K, x2 = 0.3932): 1.37772 ± 0.00036
- refractive index ([1]; 318.15 K, x2 = 0.4856): 1.37958 ± 0.00035
- refractive index ([1]; 318.15 K, x2 = 0.5569): 1.38104 ± 0.00035
- refractive index ([1]; 318.15 K, x2 = 0.6626): 1.38299 ± 0.00034
- refractive index ([1]; 318.15 K, x2 = 0.7722): 1.3848 ± 0.0003
- refractive index ([1]; 318.15 K, x2 = 0.8646): 1.38635 ± 0.00033
- speed of sound ([2]; 298.15 K, x2 = 0): 1321.5 ± 1.8 m/s
- speed of sound ([2]; 298.15 K, x2 = 0.1107): 1273.7 ± 1.7 m/s
- speed of sound ([2]; 298.15 K, x2 = 0.2174): 1236.5 ± 1.6 m/s
- speed of sound ([2]; 298.15 K, x2 = 0.3236): 1207.6 ± 1.5 m/s
- speed of sound ([2]; 298.15 K, x2 = 0.3932): 1191.9 ± 1.5 m/s
- speed of sound ([2]; 298.15 K, x2 = 0.4856): 1174.5 ± 1.4 m/s
- speed of sound ([2]; 298.15 K, x2 = 0.5569): 1163.5 ± 1.4 m/s
- speed of sound ([2]; 298.15 K, x2 = 0.6626): 1149.3 ± 1.3 m/s
- speed of sound ([2]; 298.15 K, x2 = 0.7722): 1137.6 ± 1.3 m/s
- speed of sound ([2]; 298.15 K, x2 = 0.8646): 1129.1 ± 1.2 m/s
- speed of sound ([2]; 308.15 K, x2 = 0): 1282.1 ± 1.8 m/s
- speed of sound ([2]; 308.15 K, x2 = 0.1107): 1234.3 ± 1.7 m/s
- speed of sound ([2]; 308.15 K, x2 = 0.2174): 1197.1 ± 1.6 m/s
- speed of sound ([2]; 308.15 K, x2 = 0.3236): 1168.1 ± 1.5 m/s
- speed of sound ([2]; 308.15 K, x2 = 0.3932): 1152.3 ± 1.5 m/s
- speed of sound ([2]; 308.15 K, x2 = 0.4856): 1134.7 ± 1.4 m/s
- speed of sound ([2]; 308.15 K, x2 = 0.5569): 1123.2 ± 1.4 m/s
- speed of sound ([2]; 308.15 K, x2 = 0.6626): 1109.1 ± 1.3 m/s
- speed of sound ([2]; 308.15 K, x2 = 0.7722): 1096.8 ± 1.3 m/s
- speed of sound ([2]; 308.15 K, x2 = 0.8646): 1088.3 ± 1.2 m/s
- speed of sound ([2]; 318.15 K, x2 = 0): 1242.8 ± 1.7 m/s
- speed of sound ([2]; 318.15 K, x2 = 0.1107): 1195 ± 1.7 m/s
- speed of sound ([2]; 318.15 K, x2 = 0.2174): 1157.8 ± 1.6 m/s
- speed of sound ([2]; 318.15 K, x2 = 0.3236): 1128.9 ± 1.5 m/s
- speed of sound ([2]; 318.15 K, x2 = 0.3932): 1112.8 ± 1.5 m/s
- speed of sound ([2]; 318.15 K, x2 = 0.4856): 1094.9 ± 1.4 m/s
- speed of sound ([2]; 318.15 K, x2 = 0.5569): 1083.1 ± 1.4 m/s
- speed of sound ([2]; 318.15 K, x2 = 0.6626): 1068.9 ± 1.3 m/s
- speed of sound ([2]; 318.15 K, x2 = 0.7722): 1056.6 ± 1.3 m/s
- speed of sound ([2]; 318.15 K, x2 = 0.8646): 1047.8 ± 1.2 m/s

From the NIST ThermoML archive (doi:10.1016/j.fluid.2014.10.004)
